Test results published in patent US8598157B2, “5-alkynyl-pyridines” (Boehringer Ingelheim International GmbH, priority 2011, dated 2013).

Columns and labels:
BT474 cells = experiment: alamarBlue BT474 cell assay (antiproliferative/cytotoxicity); type: cell-based; settings: BT-474 human breast cancer cell line
Source text: (§1) The H460, MB453, U87, MCF7 and BT474 alamarBlue cell assays provide EC50 values indicative of the antiproliferative or cytotoxic effects of the compounds to respectively the H460 (human non small cell line cancer), MB-453 (breast cancer cell line), U87 (glioblastoma cell line), MCF7 (breast cancer cell line) and BT474 (breast cancer cell line). As known in the field, antiproliferative or cytotoxic effect against this cell lines would be expected to be indicative of activity in treating lung, breast and brain cancers. See R. Marone R et al. Biochim. Biophys. Acta. 2008 January; 1784(1):159-85. S. Yaguchi et al., J. Natl. Cancer Inst. 2006 Apr. 19; 98(8):545-56.
(§2) Method Type: Antiproliferative/Cytotoxicity
(§3) alamarBlue® is designed to provide a rapid and sensitive measure of cell proliferation and cytotoxicity in various human and animal cell lines. The assay is based on the reduction of alamarBlue in the reducing environment of living (metabolically active) cells. In the presence of added cytotoxic or antiproliferative compounds, the innate metabolic activity ceases.
(§4) AlamarBlue is soluble and stable in culture medium. Measurements are made fluorometrically by exciting at 530-560 nm and measuring emission at 590 nm. In reporting percent alamarBlue reduction by monitoring fluorescence, data are expressed as fluorescence emission intensity units as a function of time of incubation.
(§5) 3. Equipment • 96-well plates, flat bottom (Falcon, Cat. No.: 353072) • 96-well plates, U-shaped (Costar, Cat. No.: 3799) • CO2-Incubator • Microplate Reader, Spectramax Plus, Molecular Devices 4. Typical Procedure • Day 0: Seed 3000 BT-474 cells (IMDM/5% FCS, 1% NEAA, 1% Sodiumpyruvat) in 150 μl medium into a 96-well plate, flat bottom (include mediumblank). Incubate plates at 37° C. in a CO2 incubator overnight. • Day 1: Dilute compounds to a concentration 40 μM->1:3 in medium, 10 dilution steps, in 96-well plates. • Add 50 μl per well of each dilution (total volume per well 200 μl; final conc. of cpds: 10 μM->1:3). If required, test further dilutions. • All concentrations are tested in duplicates. • Controls: Cells w/o cpd. (+50 μl medium/DMSO). • Cells are incubated with compounds for 5-6 days. • Day 6 or 7: Add 25 μl of alamarBlue solution to each well and incubate for 8 hours at 37° C. Measure fluorescence by exciting at 530-560 nm and measuring emission at 590 nm. 5. Evaluation • Subtract average value for medium blank from sample readings • Calculate EC50 using GraphPad Prism (Fifty)

MB453 cells = experiment: alamarBlue MB453 cell assay (antiproliferative/cytotoxicity); type: cell-based; settings: Homo sapiens; MDA MB 453 breast cancer cell line
Source text: as §1, §2, §3, §4, §5

U87 cells = experiment: U87 cell assay (antiproliferative/cytotoxicity); type: cell-based; settings: U-87MG human glioblastoma cells
Source text: as §1, §2, §3, §4, §5

MCF7 cells = experiment: alamarBlue MCF7 cell assay (antiproliferative/cytotoxicity); type: cell-based; settings: MCF7 human breast cancer cell line
Source text: as §1, §2, §3, §4, §5

PI3Kalpha = PI3Kalpha (Homo sapiens (Human), UniProt P42336); experiment: Inhibition of PI3Kalpha-induced PIP-2 phosphorylation (filter-binding assay); type: biochemical; settings: 33P-ATP, p85alpha/His-p110alpha, read-out: IC50 PI3Kα
Source text: Inhibition of PI3Kalpha-Induced PIP-2 Phosphorylation
This PI3Kalpha assay provides an IC50 value indicative of the activity of the compounds to inhibit PI3 kinase alpha activity. Inhibition of PI3 kinase would be expected to be indicative of activity in treating conditions of excessive or anomalous cell proliferation, such as cancers. See also J. A. Engelman, Nature Reviews Cancer, 2009, 9, 550-562; A. Carnero, Expert Opin. Investig. Drugs, 2009, 18, 1265-1277 and P. Liu et al., Nature Reviews Drug Discovery, 2009, 8, 627-64.
Method Type: Filter-Binding-Assay
Aliquoted in desired amounts and stored at −80° C. Final assay concentration 25 ng/well • Phosphotyrosin PDGFRbeta-peptide H-CGG-pY-[…]-pY-VPMLDM-NH2 was synthesized by Jerini Peptide Technologies (JPT) and used in a final conc. of 1.7 μM (stock 100 μM prepared in Assay buffer with DTT, aliquoted in desired amounts and stored at −80° C.) • Cold ATP (from Sigma; A-7699), 100 μM stock solution in H2O, use 1 μM final concentration in assay • [33P]-ATP, 370 MBq/ml from Amersham (#AH9968), use 0.5 μCi/well (10 mCi/ml) • Clear 96-well plates from Greiner (#655 162) • Filter plates: Perkin Elmer UniFilter GF/B #6005177 • Microscint 0 (from Perkin Elmer, #6013611) 2. Assay Procedure
The substrate-containing lipid vesicles are dissolved to a concentration of 0.637 mg lipid blend/ml assay buffer (with BSA, freshly added) in 50 ml Falcon->keep on ice, followed by ultrasonication (pulse of 15 sec followed by a pause of 10 sec, 4×). Compounds are serially diluted in assay buffer+6% DMSO and […] of each dilution is added per well of a 96-well plate (compounds are tested in duplicates) and mixed with 30 μl of the lipid vesicles containing PDGFR-Peptide ([…]) and PI3K alpha (25 ng/well final). The mixture is then incubated for 20 minutes at room temperature. Subsequently, 20 μl of assay buffer containing […] cold ATP and 0.5 μCi/20 μl 33P-ATP are added. The plates are then incubated at room temperature for 120 minutes (shaking with 300 rpm).
The reaction mix is transferred onto filter plates using “filtermate harvester” from Packard: filter plates are rinsed with PBS, then the reaction mix is filtered onto the filter plate, washed 5 times with PBS and are allowed to dry for 30-60 minutes at 50° C.
The plate bottom is sealed with Perkin Elmer white adhesive foil and 25 μl/well Microscint( ) are added, the top is covered with transparent adhesive foil and the plate is measured with Wallac Trilux 1450 Microbeta Counter.
As positive control serve wells containing vehicle controls (1% DMSO in assay buffer), showing non-inhibited kinase activity (high values). Wells containing assay buffer instead of enzyme can serve as control for background activity (low values).
Calculate IC50 values using the Smiley program (based on GrapPad Prism)

H460 cells = experiment: alamarBlue H460 cell assay (antiproliferative/cytotoxicity); type: cell-based; settings: NCI-H460; H460 human lung carcinoma cells
Source text: as §1, §2, §3, §4, §5

Sequence of PI3Kalpha (P42336 whole entry): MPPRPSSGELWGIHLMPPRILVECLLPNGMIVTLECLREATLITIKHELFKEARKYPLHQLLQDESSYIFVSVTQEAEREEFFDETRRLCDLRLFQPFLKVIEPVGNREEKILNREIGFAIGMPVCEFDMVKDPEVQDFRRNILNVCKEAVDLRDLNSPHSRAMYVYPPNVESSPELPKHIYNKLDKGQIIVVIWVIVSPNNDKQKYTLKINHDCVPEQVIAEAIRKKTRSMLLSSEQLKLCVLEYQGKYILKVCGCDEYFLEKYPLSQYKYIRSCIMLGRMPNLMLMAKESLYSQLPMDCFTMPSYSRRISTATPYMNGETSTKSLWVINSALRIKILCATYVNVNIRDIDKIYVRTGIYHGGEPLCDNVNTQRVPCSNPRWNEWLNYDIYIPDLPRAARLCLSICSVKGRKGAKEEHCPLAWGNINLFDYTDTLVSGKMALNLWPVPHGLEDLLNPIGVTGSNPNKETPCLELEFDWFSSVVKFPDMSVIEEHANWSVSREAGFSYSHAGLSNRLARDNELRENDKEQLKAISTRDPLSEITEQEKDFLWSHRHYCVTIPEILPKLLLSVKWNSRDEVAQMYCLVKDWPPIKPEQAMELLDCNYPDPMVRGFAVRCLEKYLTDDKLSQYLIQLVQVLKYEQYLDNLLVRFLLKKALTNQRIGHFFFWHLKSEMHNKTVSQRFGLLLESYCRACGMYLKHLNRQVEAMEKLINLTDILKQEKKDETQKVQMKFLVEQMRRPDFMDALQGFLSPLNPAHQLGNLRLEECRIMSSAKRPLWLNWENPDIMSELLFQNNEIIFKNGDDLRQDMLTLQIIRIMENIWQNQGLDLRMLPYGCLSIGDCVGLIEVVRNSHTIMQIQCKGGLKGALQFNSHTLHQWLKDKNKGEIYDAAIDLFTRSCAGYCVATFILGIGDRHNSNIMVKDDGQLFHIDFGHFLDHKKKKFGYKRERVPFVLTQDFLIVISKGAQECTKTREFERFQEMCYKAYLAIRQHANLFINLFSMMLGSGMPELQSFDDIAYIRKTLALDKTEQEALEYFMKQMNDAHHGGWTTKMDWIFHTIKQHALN

| IC50 (PI3Kalpha) | SMILES | EC50 (BT474 cells) | EC50 (MB453 cells) | EC50 (U87 cells) | EC50 (MCF7 cells) | EC50 (H460 cells) |
| --- | --- | --- | --- | --- | --- | --- |
| 0.65 nM | Cc1ncc(C#Cc2c(C)ncnc2N2CCOCC2)cc1NS(=O)(=O)c1ccccc1F [Example I-2, 2-Fluoro-N-[2-methyl-5-(4-methyl-6-morpholin-4-yl-pyrimidin-5-ylethynyl)-pyridin-3-yl]-benzenesulfonamide] | 148 nM | 168 nM | 342 nM | 43 nM | 234 nM |
| 5 nM | CCCS(=O)(=O)Nc1cc(C#Cc2c(C)ncnc2N2CCOCC2)cnc1C [Example I-3, Propane-1-sulfonic acid [2-methyl-5-(4-methyl-6-morpholin-4-yl-pyrimidin-5-ylethynyl)-pyridin-3-yl]-amide] | 1040 nM | 777 nM | 529 nM | 451 nM | 315 nM |
| 1 nM | COc1cccc(S(=O)(=O)Nc2cc(C#Cc3c(C)ncnc3N3CCOCC3)cnc2C)c1 [Example I-4, 3-Methoxy-N-[2-methyl-5-(4-methyl-6-morpholin-4-yl-pyrimidin-5-ylethynyl)-pyridin-3-yl]-benzenesulfonamide] | 246 nM | 294 nM | 467 nM | 296 nM | 114 nM |
| 1 nM | Cc1ncc(C#Cc2c(C)ncnc2N2CCOCC2)cc1NS(=O)(=O)c1ccccc1Cl [Example I-5, 2-Chloro-N-[2-methyl-5-(4-methyl-6-morpholin-4-yl-pyrimidin-5-ylethynyl)-pyridin-3-yl]-benzenesulfonamide] | 152 nM | 202 nM | 271 nM | 61 nM | 64 nM |
| 1 nM | Cc1ncc(C#Cc2c(C)ncnc2N2CCOCC2)cc1NS(=O)(=O)c1cccc(F)c1 [Example I-6, 3-Fluoro-N-[2-methyl-5-(4-methyl-6-morpholin-4-yl-pyrimidin-5-ylethynyl)-pyridin-3-yl]-benzenesulfonamide] | 194 nM | 259 nM | 368 nM | 75 nM | 130 nM |
| 0.8 nM | Cc1ncc(C#Cc2c(C)ncnc2N2CCOCC2)cc1NS(=O)(=O)c1c(F)cccc1F [Example I-7, 2,6-Difluoro-N-[2-methyl-5-(4-methyl-6-morpholin-4-yl-pyrimidin-5-ylethynyl)-pyridin-3-yl]-benzenesulfonamide] | 82 nM | 146 nM | 223 nM | 38 nM | 108 nM |
| 1 nM | Cc1ncc(C#Cc2c(C)ncnc2N2CCOCC2)cc1NS(=O)(=O)c1ccccc1Br [Example I-8, 2-Bromo-N-[2-methyl-5-(4-methyl-6-morpholin-4-yl-pyrimidin-5-ylethynyl)-pyridin-3-yl]-benzenesulfonamide] | 134 nM | 143 nM | 205 nM | 46 nM | 47 nM |
| 1 nM | Cc1ncc(C#Cc2c(C)ncnc2N2CCOCC2)cc1NS(=O)(=O)c1cn(C)cn1 [Example I-9, 1-Methyl-1H-imidazole-4-sulfonic acid [2-methyl-5-(4-methyl-6-morpholin-4-yl-pyrimidin-5-ylethynyl)-pyridin-3-yl]-amide] | 856 nM | 1070 nM | 1450 nM | 748 nM | 1460 nM |
| 0.72 nM | Cc1ncc(C#Cc2c(C)ncnc2N2CCOCC2)cc1NS(=O)(=O)c1cccs1 [Example I-10, Thiophene-2-sulfonic acid [2-methyl-5-(4-methyl-6-morpholin-4-yl-pyrimidin-5-ylethynyl)-pyridin-3-yl]-amide] | 116 nM | 113 nM | 126 nM | 67 nM | 42 nM |
| 1 nM | Cc1ccccc1S(=O)(=O)Nc1cc(C#Cc2c(C)ncnc2N2CCOCC2)cnc1C [Example I-11, 2-Methyl-N-[2-methyl-5-(4-methyl-6-morpholin-4-yl-pyrimidin-5-ylethynyl)-pyridin-3-yl]-benzenesulfonamide] | 271 nM | 298 nM | 466 nM | 190 nM | 56 nM |
| 4 nM | COCCS(=O)(=O)Nc1cc(C#Cc2c(C)ncnc2N2CCOCC2)cnc1C [Example I-12, 2-Methoxy-ethanesulfonic acid [2-methyl-5-(4-methyl-6-morpholin-4-yl-pyrimidin-5-ylethynyl)-pyridin-3-yl]-amide] | 684 nM | 839 nM | 1290 nM | 464 nM | 486 nM |
| 0.63 nM | Cc1ncc(C#Cc2c(C)ncnc2N2CCOCC2)cc1NS(=O)(=O)c1ccccc1C(F)(F)F [Example I-13, N-[2-Methyl-5-(4-methyl-6-morpholin-4-yl-pyrimidin-5-ylethynyl)-pyridin-3-yl]-2-trifluoromethyl-benzenesulfonamide] | 69 nM | 63 nM | 108 nM | 18 nM | 23 nM |
| 0.85 nM | Cc1ncc(C#Cc2c(C)ncnc2N2CCCCC2)cc1NS(=O)(=O)c1ccc(F)cc1F [Example I-14, 2,4-Difluoro-N-[2-methyl-5-(4-methyl-6-piperidin-1-yl-pyrimidin-5-ylethynyl)-pyridin-3-yl]-benzenesulfonamide] | 252 nM | 444 nM | 615 nM | 114 nM | 245 nM |
| 0.74 nM | Cc1ncc(C#Cc2c(C)ncnc2N(C)C(C)C)cc1NS(=O)(=O)c1ccc(F)cc1F [Example I-15, 2,4-Difluoro-N-{5-[4-(isopropyl-methyl-amino)-6-methyl-pyrimidin-5-ylethynyl]-2-methyl-pyridin-3-yl}-benzenesulfonamide] | 318 nM | 898 nM | 1670 nM | 163 nM | 376 nM |
